For one test, the system named is PC-3. As to the kind of experiment: MTT assay for cell cytotoxicity. In kind it is cell-based, human. The conditions noted are these: 72 h, at least three independent experiments, read-out: MTT assay (IC50 ± SD) PC-3. The protocol: (§1) All of synthesis compounds were evaluated cell cytotoxicity by using MTT colorimetric assay on PC-3 and DU-145 cell lines. DU-145 and PC-3 are human hormone-refractory (androgen-independent) prostatic cancer cell lines from American Type Culture Collection (HTB-81™, ATCC, Rockville, MD)^125 and Bioresource Collection and Research Center (60122, BCRC, Taiwan)^126, respectively. Two of the "classical" cell lines were cultivated in RPMI-1640 medium supplemented with 5% fetal bovine serum (v/v), 100 U/mL penicillin, and […] streptomycin. Approximately 2 x 10^3 cells were seeded into each well of a 96-well plate and incubated in 5% CO2 at 37 °C for 24 h. To evaluate the in vitro cytotoxicity, all the synthetic compounds were dissolved in DMSO, prepared immediately before the experiments and diluted into the complete medium before being added to each well of a 96-well plate. Each compound was then added to the culture medium for designated various concentrations (0.15, 0.5, 1.5, 5, 15 µM). After 72 h, an amount of 100 µL of MTT (1 mg/mL) was added to each well, and the samples were incubated at 37 °C for 4 h. After removing the MTT solution, 100 µL of DMSO was added to each well and incubated at 37 °C for another 20 mins. The absorbency at 560 nm was measured by using an ELISA reader.
(§2) Results are expressed as mean values of at least three independent experiments. The IC50 values of testing compounds were described in Table 1. Table1. Effects of 10-Chloro-12H-thiochromeno[2,3-c]quinolin -12-one derivatives on cytotoxicity by MTT assay.
A general note: Tetrazolium assays rely on reduction of a dye to a coloured formazan, in cell work by metabolically active cells.

The subject of the next test is DU-145. Description: MTT assay for cell cytotoxicity. In kind it is cell-based, human. The conditions noted are these: 72 h, at least three independent experiments, read-out: MTT assay (IC50 ± SD) DU-145. The protocol:
as §1, §2

Structures are written as SMILES. Read-outs that look alike come from different tables or passages of the source.

Turning to `CC[C@@]1(O)C(=O)OCc2c1cc1n(c2=O)Cc2cc3ccccc3nc2-1` [Camptothecin, reference compound], the IC50 in the test with PC-3 (Homo sapiens) and with DU-145 (Homo sapiens) was 0.1 ± 0.01 µM each time.

As for `CCN1CCN(c2nc3ccccc3c3c(=O)c4cc(Cl)ccc4sc23)CC1` [Compound 9, 10-Chloro-6-(4-ethylpiperazin-1-yl)-12H-thiochromeno[2,3-c]q uinolin-12-one], the figures for the IC50 in the test on PC-3 (Homo sapiens) and with DU-145 (Homo sapiens) were 12 ± 3.41 µM and above 15 µM, respectively.

`O=c1c2cc(Cl)ccc2sc2c(N3CCSCC3)nc3ccccc3c12` [Compound 14, 10-Chloro-6-thiomorpholino-12H thiochromeno[2,3-c]quinolin-12-one]: the IC50 in the test with PC-3 (Homo sapiens) and in the test on DU-145 (Homo sapiens) was above 15 µM each time. For the compound `O=c1c2cc(Cl)ccc2sc2c(N3CCCCC3)nc3ccccc3c12` [Compound 15, 10-Chloro-6-(piperidin-1-yl)-12H-thiochromeno[2,3-c]quinolin-12-one], the IC50 was above 15 µM with PC-3 (Homo sapiens) and 13.4 ± 2.87 µM with DU-145 (Homo sapiens).

As for `O=c1c2cc(Cl)ccc2sc2c(N3CCC(O)CC3)nc3ccccc3c12` [Compound 16, 10-Chloro-6-(4-hydroxypiperidin-1-yl)-12H-thiochromeno[2,3-c]quinolin-12-one], the results for the IC50 in the test with PC-3 (Homo sapiens) and in the test on DU-145 (Homo sapiens) were 9.55 ± 2.42 µM and 11.1 ± 4.18 µM, respectively. As for `O=c1c2cc(Cl)ccc2sc2c(N3CCC(Cc4ccccc4)CC3)nc3ccccc3c12` [Compound 17, 6-(4-Benzylpiperidin-1-yl)-10-chloro-12H-thiochromeno[2,3-c]q uinolin-12-one], the IC50 with PC-3 (Homo sapiens) and in the test with DU-145 (Homo sapiens) was above 15 µM in each case.

With `O=c1c2cc(Cl)ccc2sc2c(N3CCC(N4CCCCC4)CC3)nc3ccccc3c12` [Compound 18, 6-([1,4'-Bipiperidin]-1'-yl)-10-chloro-12H-thiochromeno[2,3-c]q uinolin-12-one], the IC50 in the test on PC-3 (Homo sapiens) turned out to be 14.2 ± 1.41 µM; in the test with DU-145 (Homo sapiens) it was 10.2 ± 2.03 µM. Consider `O=c1c2cc(Cl)ccc2sc2c(N3CCC(CCCC4CCNCC4)CC3)nc3ccccc3c12` [Compound 19, 10-Chloro-6-(4-(3-(piperidin-4-yl)propyl)piperidin-1yl)-12H-thi ochromeno[2,3-c]quinolin-12-one], for which the values for the IC50 with PC-3 (Homo sapiens) and with DU-145 (Homo sapiens) were 6.36 ± 0.17 µM and 9.02 ± 1.2 µM, respectively. For `O=c1c2cc(Cl)ccc2sc2c(N3CCCC3)nc3ccccc3c12` [Compound 20, 10-Chloro-6-(pyrrolidin-1-yl)-12H-thiochromeno[2,3-c]quinolin-12-one], in that order: above 15 µM and above 15 µM. On to `O=C1CCCCN1c1nc2ccccc2c2c(=O)c3cc(Cl)ccc3sc12` [Compound 21, 10-chloro-6-(2-oxopiperidin-1-yl)-12H-thiochromeno[2,3-c]quin olin-12-one], for which the IC50 with PC-3 (Homo sapiens) is 9.55 ± 2.42 µM; with DU-145 (Homo sapiens), 11.1 ± 4.18 µM. Consider `CNc1nc2ccccc2c2c(=O)c3cc(Cl)ccc3sc12` [Compound N1, 10-Chloro-6-methylamino-12H-thiochromeno[2,3-c]quinolin-12-one], for which the IC50 turned out to be 14.5 ± 2.7 µM in the test with PC-3 (Homo sapiens) and 11.7 ± 5.15 µM in the test on DU-145 (Homo sapiens). For `CCNc1nc2ccccc2c2c(=O)c3cc(Cl)ccc3sc12` [Compound N2, 10-Chloro-6-ethylamino-12H-thiochromeno[2,3-c]quinolin-12-one], in that order: 5.18 ± 2.2 µM and 6.7 ± 1.62 µM. Regarding `CCCNc1nc2ccccc2c2c(=O)c3cc(Cl)ccc3sc12` [Compound N3, 10-Chloro-6 propylamino-12H-thiochromeno[2,3-c]quinolin-1 2-one], the IC50 in the test on PC-3 (Homo sapiens) stood at 7.41 ± 3.43 µM; in the test with DU-145 (Homo sapiens), 7.64 ± 2.74 µM.

As for `CCCCNc1nc2ccccc2c2c(=O)c3cc(Cl)ccc3sc12` [Compound N4, 6-(Butylamino)-10-chloro-12H-thiochromeno[2,3-c]quinolin-1 2-one], the IC50 in the test on PC-3 (Homo sapiens) was found to be 10.1 ± 1.32 µM; in the test on DU-145 (Homo sapiens), 10.3 ± 2.46 µM. The corresponding values for `CC(C)CNc1nc2ccccc2c2c(=O)c3cc(Cl)ccc3sc12` [Compound N5, 10-Chloro-6-isobutylamino-12H-thiochromeno[2,3-c]quinolin-12-one] are above 15 µM and above 15 µM. For `CCC(CC)Nc1nc2ccccc2c2c(=O)c3cc(Cl)ccc3sc12` [Compound N6, 10-Chloro-6-(pentan-3-ylamino)-12H-thiochromeno[2,3-c]quin olin-12-one], in that order: above 15 µM and above 15 µM. Take `O=c1c2cc(Cl)ccc2sc2c(NCCO)nc3ccccc3c12` [Compound N9, 10-Chloro-6-(2-ethanolamino)-12H-thiochromeno[2,3-c]quinol in-12-one]: the IC50 in the test with PC-3 is 7.48 ± 3.35 µM; in the test with DU-145, 11.6 ± 7.23 µM.

Take `O=c1c2cc(Cl)ccc2sc2c(NCCCO)nc3ccccc3c12` [Compound N10, 10-Chloro-6-(3-propanolamino)-12H-thiochromeno[2,3-c]quin olin-12-one]: the IC50 in the test on PC-3 turned out to be 6.31 ± 4.11 µM; in the test with DU-145, 5.94 ± 2.03 µM. In the case of `O=c1c2cc(Cl)ccc2sc2c(NCCCCCO)nc3ccccc3c12` [Compound N11, 10-Chloro-6-(5-pentanolamino)-12H-thiochromeno[2,3-c]quin olin-12-one], the IC50 with PC-3 was 8.38 ± 3.39 µM; in the test on DU-145, 4.95 ± 0.58 µM. `CCC(CO)Nc1nc2ccccc2c2c(=O)c3cc(Cl)ccc3sc12` (centres unmarked) [Compound N12, 10-Chloro-6-((1-hydroxybutan-2yl)amino)-12H-thiochromeno[2,3-c]quinolin-12-one]: the concentration for half-maximal inhibition (IC50) in the test on PC-3 (Homo sapiens) came to 7.05 ± 2.48 µM; in the test with DU-145 (Homo sapiens) it was 6.74 ± 2.14 µM. For `CC(C)CC(C)Nc1nc2ccccc2c2c(=O)c3cc(Cl)ccc3sc12` (centres unmarked) [Compound N13, 10-Chloro-6-((4-methylpentan-2yl)amino)-12H-thiochromeno[2,3-c]quinolin-12-one], in that order: 10.4 ± 2.3 µM and 14.2 ± 1.18 µM.

For the compound `O=c1c2cc(Cl)ccc2sc2c(NCCN3CCOCC3)nc3ccccc3c12` [Compound N16, 10-Chloro-6-((2-morpholinoethyl)amino)-12H-thiochromeno[2,3-c]quinolin-12-one], the IC50 with PC-3 (Homo sapiens) and in the test on DU-145 (Homo sapiens) was above 15 µM throughout. `O=c1c2cc(Cl)ccc2sc2c(NC3Cc4ccccc4C3)nc3ccccc3c12` [Compound N20, 10-Chloro-6-((2,3-dihydro-1H-inden-2-yl)amino)-12H-thiochro meno[2,3-c]quinolin-12-one]: the concentration for half-maximal inhibition (IC50) worked out at 6.2 ± 2.52 µM with PC-3 (Homo sapiens) and 4.86 ± 0.99 µM with DU-145 (Homo sapiens). For `O=c1c2cc(Cl)ccc2sc2c(NC3CCCCC3)nc3ccccc3c12` [Compound N21, 10-Chloro-6-(cyclohexylamino)-12H-thiochromeno[2,3-c]quino lin-12-one], in that order: 7.51 ± 0.22 µM and 8.06 ± 2.08 µM.

Consider `O=c1c2cc(Cl)ccc2sc2c(NC3CCN(Cc4ccccc4)CC3)nc3ccccc3c12` [Compound N22, 6-((1-Benzylpiperidin-4-yl)amino)-10-chloro-12H-thiochromen o[2,3-c]quinolin-12-one], for which the IC50 was 6.47 ± 0.3 µM in the test with PC-3 (Homo sapiens) and 8.39 ± 1.84 µM with DU-145 (Homo sapiens). For `O=c1c2cc(Cl)ccc2sc2c(NCc3cccs3)nc3ccccc3c12` [Compound N23, 10-Chloro-6-((thiophen-2ylmethyl)amino)-12H-thiochromeno[2,3-c]quinolin-12-one], in that order: above 15 µM and 14.7 ± 3.84 µM.

Turning to `COc1cccc2c1C(=O)c1c(O)c3c(c(O)c1C2=O)C[C@@](O)(C(=O)CO)C[C@@H]3O[C@H]1C[C@H](N)[C@H](O)[C@H](C)O1` [Doxorubicin, reference compound], the 50% inhibitory concentration (IC50) in the test with DU-145 (Homo sapiens) came out at 0.12 ± 0.03 µM.

One may read the IC50 as the midpoint of a concentration-inhibition curve.

Values taken from patent EP3002287B1, “Thiochromeno[2,3-c]quinolin-12-one derivatives and their use as topoisomerase inhibitors” (National Defense Medical Center, priority 2014, dated 2016).
